Results published in ChEMBL document CHEMBL1212941, “Eucapsitrione, an anti-Mycobacterium tuberculosis anthraquinone derivative from the cultured freshwater cyanobacterium Eucapsis sp” (J Nat Prod, 2010).
Converted amounts (≈) assume the structure as drawn. The source made the active and inactive calls. The rule behind the calls is not given here.

Columns and labels:
[1] = tested on: Mycolicibacterium smegmatis; assay: Antimycobacterial activity against Mycobacterium smegmatis at 55 uM by broth microdilution method; type: functional, organism-based
[2] = tested on: Mycobacterium tuberculosis; assay: Antimycobacterial activity against Mycobacterium tuberculosis H37Rv by microplate alamar blue assay; type: functional
Escherichia coli = assay: Antibacterial activity against Escherichia coli at 55 uM by broth microdilution method; type: functional, organism-based
[3] = tested on: Mycobacterium tuberculosis; assay: Antimycobacterial activity against Mycobacterium tuberculosis H37Rv by low oxygen recovery assay; type: functional
Vero = assay: Cytotoxicity against african green monkey Vero cells; type: cell-based; settings: Chlorocebus sabaeus
Staphylococcus aureus = assay: Antibacterial activity against Staphylococcus aureus at 55 uM by broth microdilution method; type: functional, organism-based
Candida albicans = assay: Antifungal activity against Candida albicans at 55 uM by broth microdilution method; type: functional, organism-based

For O=c1c2cccc(O)c2c(=O)c2c(O)c3c(cc12)c(=O)c1c(O)cccc13 [EUCAPSITRIONE], the Activity [1] was “inactive”, the MIC [2] was 3.1 µM (≈ 1.11 µg/mL) and the Activity (Escherichia coli) was “inactive”. The MIC [3] was 6.4 µM (≈ 2.29 µg/mL), the IC50 (Vero) was greater than 28 µM and the Activity (Staphylococcus aureus) was “inactive”. For the same compound, the Activity (Candida albicans) was “inactive”.
